According to the CheMixHub viscosity set:

Assay: xn = mol fraction of the nth substance listed

CCCCOC(=O)c1ccccc1 + CCCCCCCCCCCC
101 kPa
Conditions	viscosity [mPa·s]
298.15 K, x2 = 0.0369	2.578
298.15 K, x2 = 0.0748	2.463
298.15 K, x2 = 0.1143	2.347
298.15 K, x2 = 0.1505	2.251
298.15 K, x2 = 0.1939	2.149
298.15 K, x2 = 0.2329	2.064
298.15 K, x2 = 0.2775	1.977
298.15 K, x2 = 0.3263	1.893
298.15 K, x2 = 0.3672	1.834
298.15 K, x2 = 0.4144	1.759
298.15 K, x2 = 0.4576	1.702
298.15 K, x2 = 0.5085	1.649
298.15 K, x2 = 0.5525	1.594
298.15 K, x2 = 0.6026	1.549
298.15 K, x2 = 0.6499	1.506
298.15 K, x2 = 0.7176	1.457
298.15 K, x2 = 0.7662	1.428
298.15 K, x2 = 0.8184	1.399
298.15 K, x2 = 0.8852	1.372
308.15 K, x2 = 0.0565	2.041
308.15 K, x2 = 0.0869	1.968
308.15 K, x2 = 0.1399	1.857
308.15 K, x2 = 0.1662	1.807
308.15 K, x2 = 0.2145	1.722
308.15 K, x2 = 0.2546	1.662
308.15 K, x2 = 0.3019	1.596
308.15 K, x2 = 0.3408	1.548
308.15 K, x2 = 0.3915	1.49
308.15 K, x2 = 0.4297	1.451
308.15 K, x2 = 0.4845	1.4
308.15 K, x2 = 0.5231	1.367
308.15 K, x2 = 0.5719	1.328
308.15 K, x2 = 0.6276	1.287
308.15 K, x2 = 0.68	1.256
308.15 K, x2 = 0.7278	1.229
308.15 K, x2 = 0.7842	1.202
308.15 K, x2 = 0.8501	1.176
308.15 K, x2 = 0.9392	1.151
318.15 K, x2 = 0.0245	1.764
318.15 K, x2 = 0.0618	1.688
318.15 K, x2 = 0.101	1.612
318.15 K, x2 = 0.1422	1.543
318.15 K, x2 = 0.181	1.487
318.15 K, x2 = 0.2247	1.427
318.15 K, x2 = 0.2652	1.376
318.15 K, x2 = 0.3117	1.325
318.15 K, x2 = 0.355	1.282
318.15 K, x2 = 0.4033	1.238
318.15 K, x2 = 0.4479	1.202
318.15 K, x2 = 0.5006	1.163
318.15 K, x2 = 0.5557	1.127
318.15 K, x2 = 0.604	1.099
318.15 K, x2 = 0.6185	1.091
318.15 K, x2 = 0.7124	1.045
318.15 K, x2 = 0.7679	1.024
318.15 K, x2 = 0.8278	1.006
318.15 K, x2 = 0.9612	0.974

CCCCOC(=O)c1ccccc1 + CCCCCCCCCCCCCC
101 kPa
Conditions	viscosity [mPa·s]
298.15 K, x2 = 0.0346	2.623
298.15 K, x2 = 0.0683	2.562
298.15 K, x2 = 0.1072	2.49
298.15 K, x2 = 0.1432	2.436
298.15 K, x2 = 0.1795	2.38
298.15 K, x2 = 0.2175	2.328
298.15 K, x2 = 0.2506	2.282
298.15 K, x2 = 0.2944	2.226
298.15 K, x2 = 0.3362	2.186
298.15 K, x2 = 0.3761	2.154
298.15 K, x2 = 0.4036	2.128
298.15 K, x2 = 0.472	2.08
298.15 K, x2 = 0.5203	2.055
298.15 K, x2 = 0.5754	2.03
298.15 K, x2 = 0.6238	2.015
298.15 K, x2 = 0.6833	1.995
298.15 K, x2 = 0.7394	1.989
298.15 K, x2 = 0.8084	1.99
298.15 K, x2 = 0.8738	2.005
308.15 K, x2 = 0.0474	2.117
308.15 K, x2 = 0.0876	2.049
308.15 K, x2 = 0.1255	1.995
308.15 K, x2 = 0.1576	1.956
308.15 K, x2 = 0.1932	1.916
308.15 K, x2 = 0.2315	1.876
308.15 K, x2 = 0.2692	1.842
308.15 K, x2 = 0.3166	1.806
308.15 K, x2 = 0.3536	1.783
308.15 K, x2 = 0.3967	1.758
308.15 K, x2 = 0.4455	1.735
308.15 K, x2 = 0.4967	1.714
308.15 K, x2 = 0.5574	1.696
308.15 K, x2 = 0.5991	1.684
308.15 K, x2 = 0.6454	1.675
308.15 K, x2 = 0.7094	1.667
308.15 K, x2 = 0.7691	1.664
308.15 K, x2 = 0.8229	1.665
308.15 K, x2 = 0.9132	1.68
318.15 K, x2 = 0.0221	1.779
318.15 K, x2 = 0.0602	1.728
318.15 K, x2 = 0.0938	1.687
318.15 K, x2 = 0.1331	1.646
318.15 K, x2 = 0.1693	1.612
318.15 K, x2 = 0.2101	1.576
318.15 K, x2 = 0.249	1.546
318.15 K, x2 = 0.2933	1.516
318.15 K, x2 = 0.3356	1.491
318.15 K, x2 = 0.3836	1.467
318.15 K, x2 = 0.4273	1.448
318.15 K, x2 = 0.4797	1.428
318.15 K, x2 = 0.5267	1.413
318.15 K, x2 = 0.5825	1.399
318.15 K, x2 = 0.6341	1.388
318.15 K, x2 = 0.6948	1.38
318.15 K, x2 = 0.7506	1.377
318.15 K, x2 = 0.8156	1.375
318.15 K, x2 = 0.8778	1.381

CCNCC + CCCCCCCCCCO
viscosity [mPa·s], 101 kPa
Conditions	x1 = 0.5973	x2 = 0.0971	x2 = 0.1985	x2 = 0.2971	x2 = 0.4003	x2 = 0.5148	x2 = 0.6024	x2 = 0.7216	x2 = 0.8014	x2 = 0.8997
298.15 K	–	0.472	0.762	1.184	1.834	2.865	3.979	5.858	7.47	9.664
303 K	2.015	–	–	–	–	–	–	–	–	–
313.15 K	–	0.378	0.576	0.851	1.254	1.87	2.556	3.617	4.497	5.631

Nc1ccccc1 + CCCCCCCCCCO
viscosity [mPa·s], 100 kPa
Conditions	x1 = 0.0718	x1 = 0.1593	x1 = 0.2335	x1 = 0.3471	x1 = 0.4452	x1 = 0.5618	x1 = 0.6428	x1 = 0.7439	x1 = 0.8518	x1 = 0.9439
293.15 K	12.8	11.23	10.05	8.62	7.44	6.23	5.57	4.95	4.47	4.31
303.15 K	8.75	7.6	6.85	5.92	5.25	4.38	3.94	3.56	3.23	3.12
313.15 K	6.16	5.4	4.9	4.28	3.84	3.3	2.97	2.7	2.5	2.44
323.15 K	4.47	4	3.65	3.21	2.89	2.51	2.28	2.1	1.95	1.91

CCNCC + CCCCCCCCCO
viscosity [mPa·s], 100 kPa
Conditions	x1 = 0.0799	x1 = 0.1586	x1 = 0.2389	x1 = 0.3485	x1 = 0.4391	x1 = 0.5594	x1 = 0.649	x1 = 0.7395	x1 = 0.8499	x1 = 0.9397
293.15 K	10.36	9.36	8.35	7.05	5.99	4.66	3.71	2.79	1.71	0.87
303.15 K	7.11	6.4	5.7	4.78	4.05	3.14	2.5	1.88	1.17	0.63
313.15 K	5.05	4.53	4.03	3.37	2.85	2.21	1.77	1.34	0.85	0.49
323.15 K	3.71	3.34	2.97	2.49	2.12	1.65	1.33	1.02	0.67	0.4

COCCOCCOCCOC + CCCCCCCCCO
101 kPa
Conditions	viscosity [mPa·s]
293.15 K, x1 = 0.06286	8.733
293.15 K, x1 = 0.0721	8.424
293.15 K, x1 = 0.157	6.409
293.15 K, x1 = 0.1967	5.797
293.15 K, x1 = 0.3999	3.779
293.15 K, x1 = 0.4952	3.246
293.15 K, x1 = 0.5949	2.852
293.15 K, x1 = 0.6909	2.575
293.15 K, x1 = 0.7539	2.434
293.15 K, x1 = 0.8907	2.226
293.15 K, x1 = 0.9525	2.165
303.15 K, x1 = 0.06693	6.211
303.15 K, x1 = 0.08755	5.811
303.15 K, x1 = 0.1949	4.339
303.15 K, x1 = 0.2889	3.545
303.15 K, x1 = 0.3982	2.936
303.15 K, x1 = 0.4875	2.576
303.15 K, x1 = 0.5926	2.286
303.15 K, x1 = 0.698	2.082
303.15 K, x1 = 0.7829	1.952
303.15 K, x1 = 0.9059	1.83
303.15 K, x1 = 0.9404	1.795
313.15 K, x1 = 0.05997	4.72
313.15 K, x1 = 0.1	4.218
313.15 K, x1 = 0.1977	3.34
313.15 K, x1 = 0.2965	2.774
313.15 K, x1 = 0.3974	2.365
313.15 K, x1 = 0.4862	2.111
313.15 K, x1 = 0.5834	1.9
313.15 K, x1 = 0.6643	1.767
313.15 K, x1 = 0.802	1.635
313.15 K, x1 = 0.915	1.521
313.15 K, x1 = 0.9497	1.503

Nc1ccccc1 + CCCCCCCCCO
viscosity [mPa·s], 100 kPa
Conditions	x1 = 0.0851	x1 = 0.1597	x1 = 0.2339	x1 = 0.3537	x1 = 0.4468	x1 = 0.5616	x1 = 0.6482	x1 = 0.7383	x1 = 0.8486	x1 = 0.9448
293.15 K	9.99	8.96	8.14	6.97	6.19	5.33	4.9	4.53	4.24	4.2
303.15 K	6.9	6.21	5.58	4.87	4.36	3.79	3.46	3.24	3.06	3.04
313.15 K	4.94	4.47	4.08	3.58	3.25	2.85	2.64	2.48	2.38	2.38
323.15 K	3.67	3.35	3.06	2.71	2.47	2.19	2.05	1.94	1.87	1.88

CCNCC + CCCCCCCCO
viscosity [mPa·s], 100 kPa
Conditions	x1 = 0.0804	x1 = 0.16	x1 = 0.2402	x1 = 0.3517	x1 = 0.4405	x1 = 0.5609	x1 = 0.65	x1 = 0.7404	x1 = 0.8495	x1 = 0.9402
293.15 K	8.22	7.36	6.53	5.45	4.61	3.56	2.82	2.13	1.33	0.7
303.15 K	5.75	5.14	4.54	3.76	3.18	2.44	1.94	1.46	0.93	0.53
313.15 K	4.15	3.7	3.26	2.69	2.28	1.75	1.4	1.06	0.69	0.42
323.15 K	3.05	2.71	2.39	1.97	1.67	1.3	1.04	0.8	0.54	0.34

Nc1ccccc1 + CCCCCCCCO
viscosity [mPa·s], 100 kPa
Conditions	x1 = 0.0862	x1 = 0.1575	x1 = 0.2382	x1 = 0.3514	x1 = 0.4471	x1 = 0.5637	x1 = 0.6558	x1 = 0.7476	x1 = 0.8555	x1 = 0.9421
293.15 K	8.01	7.27	6.6	5.83	5.28	4.66	4.4	4.19	4.03	4.14
303.15 K	5.66	5.15	4.7	4.15	3.77	3.36	3.15	3.03	2.93	3
313.15 K	4.11	3.75	3.47	3.1	2.85	2.57	2.43	2.34	2.3	2.36
323.15 K	3.09	2.85	2.63	2.37	2.18	1.98	1.89	1.83	1.81	1.86
